Results reported in patent publication US4379917A, “6"-(Substituted)-apramycin antibiotic derivatives and intermediates and starting materials therefor” (Eli Lilly and Company, priority 1981, dated 1983).
Like-named read-outs stand apart in the source and are kept apart here.

Assays:
[1] = system: Proteus morganii PR1; experiment: MIC by standard agar dilution test; format: cell-based; conditions: Morganella morganii, PR1, read-out: Minimum Inhibitory Concentration
[2] = system: Pseudomonas aeruginosa Ps25; experiment: MIC by standard agar dilution test; format: cell-based; conditions: PS25, read-out: Minimum Inhibitory Concentration
[3] = system: Salmonella typhimurium; experiment: MIC by standard agar dilution test; format: cell-based; conditions: Salmonella enterica, read-out: Minimum Inhibitory Concentration
[4] = system: Proteus morganii PR2; experiment: MIC by standard agar dilution test; format: cell-based; conditions: Morganella morganii, PR2; Table 1; agar dilution; read-out: Minimum Inhibitory Concentration
[5] = system: Bordetella bronchiseptica 16; experiment: MIC by standard agar dilution test; format: cell-based; conditions: Bordetella bronchiseptica, 16, read-out: Minimum Inhibitory Concentration
[6] = system: Pseudomonas aeruginosa Ps15; experiment: MIC by standard agar dilution test; format: cell-based; conditions: PS15, read-out: Minimum Inhibitory Concentration
[7] = system: Pseudomonas aeruginosa X528; experiment: MIC by standard agar dilution test; format: cell-based; conditions: X528, read-out: Minimum Inhibitory Concentration
[8] = system: Pseudomonas solanacearum X185; experiment: microbe, parasite or virus in culture; format: cell-based; conditions: Ralstonia solanacearum, X185, read-out: Minimum Inhibitory Concentration
[9] = system: Klebsiella pneumoniae KL2; experiment: MIC by standard agar dilution test; format: cell-based
[10] = system: Serratia marcescens SE2; experiment: MIC by standard agar dilution test; format: cell-based
[11] = system: Salmonella typhosa SA12; experiment: MIC by standard agar dilution test; format: cell-based; conditions: Salmonella enterica, read-out: Minimum Inhibitory Concentration
[12] = system: Serratia marcescens SE3; experiment: MIC by standard agar dilution test; format: cell-based
[13] = system: Klebsiella pneumoniae KL14; experiment: MIC by standard agar dilution test; format: cell-based
[14] = system: Pseudomonas aeruginosa X239; experiment: Subcutaneous therapy of Pseudomonas aeruginosa X239 infections in mice; format: in vivo; conditions: X239, sc, 2 subcutaneous doses at 1 and 5 hours post infection, dose to protect 50 percent of test animals, read-out: Effective Dose (ED50)
Protocol: Table III illustrates the effective dose (ED50, effective dose to protect 50 percent of the test animals) for representative compounds of this invention against an experimental bacterial infection in mice. | *mg/kg × 2 subcutaneous doses at 1 and 5 hours post infections The ED50 values were determined as described by W. E. Wick et al., Journal of Bacteriolocy, 81 [No. 2], 233-235 (1961).

[15] = system: Pseudomonas aeruginosa PI23; experiment: MIC by standard agar dilution test; format: cell-based; conditions: PI23, read-out: Minimum Inhibitory Concentration
[16] = system: Escherichia coli EC14; experiment: MIC by standard agar dilution test; format: cell-based; conditions: EC14, read-out: Minimum Inhibitory Concentration
[17] = system: Pseudomonas aeruginosa X239; experiment: MIC by standard agar dilution test; format: cell-based
[18] = system: Enterobacter aerogenes EB17; experiment: MIC by standard agar dilution test; format: cell-based; conditions: Klebsiella aerogenes
[19] = system: Serratia marcescens X99; experiment: MIC by standard agar dilution test; format: cell-based
[20] = system: Enterobacter cloacae EB24; experiment: MIC by standard agar dilution test; format: cell-based
[21] = system: Staphylococcus aureus 3055; experiment: MIC by standard agar dilution test; format: cell-based; conditions: Staphylococcus aureus, 3055, read-out: Minimum Inhibitory Concentration
[22] = system: Pseudomonas aeruginosa Ps9; experiment: MIC by standard agar dilution test; format: cell-based; conditions: PS9, read-out: Minimum Inhibitory Concentration
[23] = system: Pseudomonas aeruginosa SF-2; experiment: MIC by standard agar dilution test; format: cell-based
[24] = system: Pseudomonas aeruginosa X48; experiment: MIC by standard agar dilution test; format: cell-based; conditions: X48, read-out: Minimum Inhibitory Concentration
[25] = system: Streptococcus faecalis X66; experiment: MIC by standard agar dilution test; format: cell-based; conditions: Enterococcus faecalis
[26] = system: Enterobacter cloacae EN453; experiment: MIC by standard agar dilution test; format: cell-based
[27] = system: Pseudomonas aeruginosa 4276; experiment: MIC by standard agar dilution test; format: cell-based
[28] = system: Staphylococcus aureus 3074; experiment: MIC by standard agar dilution test; format: cell-based; conditions: Table II, read-out: Minimum Inhibitory Concentration
Source text: (§1) The antibacterial activity of the antibiotic compounds of this invention is illustrated by the following in vitro and in vivo test data obtained with representative compounds. In Tables I and II the minimum inhibitory concentration (MIC) for representative compounds against a wide range of gram-positive and gram-negative bacteria is presented. The MIC values were obtained by the standard agar dilution test.

[29] = system: Erwinia amylovora; experiment: MIC by standard agar dilution test; format: cell-based; conditions: Table II, read-out: Minimum Inhibitory Concentration
Source text: as §1

[30] = system: Proteus morganii PR15; experiment: MIC by standard agar dilution test; format: cell-based; conditions: Morganella morganii
[31] = system: Enterobacter aerogenes EB6; experiment: MIC by standard agar dilution test; format: cell-based; conditions: Klebsiella aerogenes, EB6, read-out: Minimum Inhibitory Concentration
[32] = system: Citrobacter freundii CF17; experiment: MIC by standard agar dilution test; format: cell-based; conditions: CF17, Table II, agar dilution, read-out: Minimum Inhibitory Concentration
[33] = system: Proteus inconstans PV25; experiment: MIC by standard agar dilution test; format: cell-based; conditions: Providencia alcalifaciens
[34] = SE3, read-out: Minimum Inhibitory Concentration, Table II
[35] = X239, read-out: Minimum Inhibitory Concentration, Table 1

CN[C@@H]1[C@@H](O[C@H]2O[C@H](C)[C@@H](N)[C@H](O)[C@H]2O)O[C@H]2C[C@@H](N)[C@@H](O[C@H]3[C@H](O)[C@@H](O)[C@H](N)C[C@@H]3N)O[C@@H]2[C@@H]1O [Test Compound 4, 6"-Deoxyapramycin]
4 µg/mL: MIC [1] | MIC [2] | MIC [6] | MIC [8] | MIC ([9]; KL2, read-out: Minimum Inhibitory Concentration) | MIC ([10]; SE2, read-out: Minimum Inhibitory Concentration) | MIC [11] | MIC ([12]; SE3, read-out: Minimum Inhibitory Concentration, Table 1) | MIC ([13]; KL14, read-out: Minimum Inhibitory Concentration) | MIC [17, 35] | MIC ([18]; EB17, read-out: Minimum Inhibitory Concentration) | MIC ([20]; EB24, read-out: Minimum Inhibitory Concentration) | MIC [24] | MIC ([26]; EN453, read-out: Minimum Inhibitory Concentration) | MIC [31]
10.9 mg/kg: ED50 [14]
> 128 µg/mL: MIC [15]
2 µg/mL: MIC ([17]; X239, read-out: Minimum Inhibitory Concentration, Table II) | MIC ([19]; X99, read-out: Minimum Inhibitory Concentration) | MIC [21] | MIC [29] | MIC ([33]; PV25, read-out: Minimum Inhibitory Concentration)
8 µg/mL: MIC [4] | MIC ([23]; SF2, Table 1, agar dilution, read-out: Minimum Inhibitory Concentration) | MIC ([25]; X66, Table II, agar dilution, read-out: Minimum Inhibitory Concentration) | MIC ([27]; Pseudomonas aeruginosa, 4276, Table 1, agar dilution, read-out: Minimum Inhibitory Concentration) | MIC ([30]; PR15, Table II, agar dilution, read-out: Minimum Inhibitory Concentration) | MIC [32]
1 µg/mL: MIC [28]
16 µg/mL: MIC [3] | MIC [5] | MIC [7] | MIC [12, 34] | MIC [16] | MIC [22]

CN[C@@H]1[C@@H](O[C@H]2O[C@H](CN)[C@@H](N)[C@H](O)[C@H]2O)O[C@H]2C[C@@H](N)[C@@H](O[C@H]3[C@H](O)[C@@H](O)[C@H](N)C[C@@H]3N)O[C@@H]2[C@@H]1O [Test Compound 5, 6"-Amino-6"-Deoxyapramycin]
16 µg/mL: MIC [1] | MIC [11] | MIC [12, 34] | MIC [16] | MIC [31]
8 µg/mL: MIC ([3]; Table II, agar dilution) | MIC [4] | MIC ([9]; KL2, Table 1, agar dilution, read-out: Minimum Inhibitory Concentration) | MIC ([10]; SE2, Table 1, agar dilution, read-out: Minimum Inhibitory Concentration) | MIC ([12]; SE3, Table 1, read-out: Minimum Inhibitory Concentration) | MIC ([13]; KL14, Table II, agar dilution, read-out: Minimum Inhibitory Concentration) | MIC ([18]; EB17, Table II, agar dilution, read-out: Minimum Inhibitory Concentration) | MIC ([19]; X99, Table 1, agar dilution, read-out: Minimum Inhibitory Concentration) | MIC ([20]; EB24, Table 1, agar dilution, read-out: Minimum Inhibitory Concentration) | MIC ([26]; EN453, Table 1, agar dilution, read-out: Minimum Inhibitory Concentration) | MIC [32] | MIC ([33]; PV25, Table 1, agar dilution, read-out: Minimum Inhibitory Concentration)
15 mg/kg: ED50 [14]
4 µg/mL: MIC [8] | MIC [28] | MIC [29]
> 128 µg/mL: MIC [15]
64 µg/mL: MIC [7] | MIC ([27]; Pseudomonas aeruginosa, 4276, read-out: Minimum Inhibitory Concentration)
128 µg/mL: MIC [22]
1 µg/mL: MIC [21]
32 µg/mL: MIC [2] | MIC [5] | MIC [6] | MIC [17, 35] | MIC ([23]; SF2, read-out: Minimum Inhibitory Concentration) | MIC [24] | MIC ([25]; X66, read-out: Minimum Inhibitory Concentration) | MIC ([30]; PR15, read-out: Minimum Inhibitory Concentration)
